Row | Structure (SMILES) | melting point [°C]
1 | CSc1nn(C)c2ccccc2c1=O | 173 to 175
2 | CCOC(=O)C=C1CCc2c(c(OC)c(OC)c(OC)c2OC)CC1 | 61 to 63
3 | COc1cccc(-c2n[nH]c(-c3ccccc3C)n2)c1 | 100 to 102
4 | CC(C(=O)O)c1ccc2[nH]ncc2c1 (configuration not stated) | 91 to 96
5 | COc1ccncc1Nc1nc(N2CCOCC2)nc(-n2c(C(F)F)nc3c(OC)cccc32)n1 | 239 to 241
6 | CCOC(=O)C(Cc1ccc(C#N)cc1)(NC(C)=O)C(=O)OCC | 160 to 163
7 | COc1ccc(-c2cc3c(C#N)c(OC)ccc3o2)cc1 | 120 to 122
8 | COc1cc(OC)nc(Oc2cccc3c2C(=O)SC3C)n1 (configuration not stated) | 157 to 159
9 | O=C(O)CC(=Cc1ccccc1)C(=O)O | 114
10 | CCC(Oc1ccccc1)c1nnc(N2C(=O)N(C)CC2O)s1 (configuration not stated) | 137 to 138
11 | O=S(=O)(On1nnc2ccccc21)c1ccc(Cl)cc1 | 94 to 95
12 | CC(C)(C)OC(=O)N1CCn2c(Cl)c(Br)c(C(N)=O)c2C1 | 214 to 216
13 | COCCn1cnc2cc(CN3CCN(C(c4ccccc4)c4ccccc4)CC3)ccc21 | 162
14 | C(=C\c1nc(COc2ccc(CCCn3ncnn3)cc2)co1)/c1ccccc1 | 97 to 98
15 | C1=C(c2ccccc2)CCN(Cc2cncc(-c3ccccc3)c2)C1 | 80 to 82
16 | COc1ccccc1-n1c(=O)[nH]c2c(C(N)=O)nc(-c3cccc([N+](=O)[O-])c3)nc21 | 295 to 296
17 | Cc1ccc(C(C)C)n1N | 21 to 24
18 | O=C(NCCN1C=CC(c2ccccc2)=CC1)c1ccccc1S(=O)(=O)O | 272 to 274
19 | CC(CC(C)(C)C)CP(=O)(O)C1OC(=O)c2ccccc21 (configuration not stated) | 117 to 121
20 | O=C1c2cccc3cc4ccccc4c(c23)C(=O)N1CCO | 211
21 | Cc1c(C)c(NC(=O)CC(C)(C)C)c2c(c1C)C(c1ccc(C(C)C)cc1)C(C)(C)O2 (configuration not stated) | 152 to 153
22 | N=C(N)NCCCCOc1ccc2c(c1)NC(=O)C(CCC(=O)O)C2 (configuration not stated) | 176 to 177
23 | CCCN(CCCCNc1ncc(CC2CCCCC2)c(=O)[nH]1)c1ccccn1 | 62 to 64
24 | CC(C)CC(=O)Nc1cccc(-c2ccnc3c(-c4cccc(C(F)(F)F)c4)cnn23)c1 | 170 to 173
25 | COc1cc(Nc2c(C#N)cnc3cc(I)ccc23)c(Cl)cc1Cl | 243 to 245

Row | Structure (SMILES) | melting point [°C]
26 | CCOC(=O)c1cn2c(n1)SCCC2 | 99 to 100
27 | COc1cc(CNc2cc(Cl)c(N=CN(C)C)c(Cl)c2)cc(OC)c1 | 124 to 125
28 | COc1ccc(CC2SC(=O)NC2=O)c2c1N(Cc1ccc([N+](=O)[O-])cc1)C(=O)CC2 (configuration not stated) | 246 to 247
29 | Cc1c(-c2ccc(C=CC(=O)OC(C)(C)C)cc2)nc2n1CCc1ccccc1C2OC1CCN(C)CC1 (configuration not stated) | 185
30 | CCOC(=O)C(=O)N(CCO)N=Cc1ccccc1 | 96 to 98
31 | c1cnc2c(c1)nnn2-c1ccncc1 | 196 to 198
32 | NS(=O)(=O)C1(c2ncc(C(F)(F)F)cc2Cl)C=CC(Cl)=CC1Cl (configuration not stated) | 125 to 126
33 | CCCC(=O)c1cc2c(c(Cl)c1Cl)OC(C(=O)O)C2 (configuration not stated) | 124 to 125
34 | CC(C)n1nc(-c2nc(O)cnc2-c2ccccc2)ccc1=O | 198 to 200
35 | CC(C)NS(=O)(=O)c1cccc(F)c1C#N | 184 to 189
36 | CCCCC(=O)OC1(C(=O)CO)CCC2C3CC(C)C4=CC(=O)CCC4(C)C3C(O)CC21C (configuration not stated) | 160
37 | Cc1c(C)c(N2Cc3cc(Cl)c(Cl)cc3C2)c(C)c2c1OC(C)(C)C2c1ccccc1 (configuration not stated) | 194 to 196
38 | COc1cc(C)c(Cc2cnoc2)cc1OC | 68.5 to 70.5
39 | CSc1cc(C)nc(SC)c1NC(=O)CSc1nc2ccccc2o1 | 203 to 205
40 | CC1(C)CCC(C)(C)C2=C1CC(Cl)C(C)(O)C2 (configuration not stated) | 122 to 124
41 | Cn1c2ccc(C(=O)c3ccccc3)cc2c2cc(C(=O)c3ccccc3)ccc21 | 222
42 | O=C(O)c1cccc2c(=O)c3cc(I)ccc3[nH]c12 | 355 to 357
43 | CCOC(=O)C(=NOC)C1=CSCCS1 | 65 to 67
44 | CC1(C)Oc2ccc(OCc3nc4cc(F)c(F)cc4s3)cc2[C@H](O)[C@@H]1c1cccc(NS(=O)(=O)C(F)(F)F)c1 | 191 to 193
45 | O=S(=O)(Nc1nnc(Cl)cc1OCc1cccnc1)c1cccc(Cl)c1Cl | 216 to 217
46 | Brc1ccc(C2CCN(C3CCC3)CC2)nc1 | 122 to 124
47 | O=C(Nc1ccc(S(=O)(=O)C[N+](=O)[O-])cc1)c1ccccc1 | 211 to 212
48 | c1ccc(CCNc2nccc3ccccc23)cc1 | 110 to 112
49 | ICCc1ccc2c(c1)OCO2 | 36 to 38
50 | O=C(O)C1=Cc2cc(Cl)c(Cl)c(Cl)c2OC1C(F)(F)F (configuration not stated) | 222 to 225

Other lines, results leading:

Row | melting point [°C] | Structure (SMILES)
51 | 159 | CN(O)CC1=C(n2ccccc2=O)c2cc([N+](=O)[O-])ccc2OC1(C)C
52 | 213 to 214 | CCc1nc2c(N)nc3cc(Oc4ccc(C(=O)OC)cn4)ccc3c2s1
53 | 45.5 to 46.6 | CC(=O)OCC(=O)COC(C)=O
54 | 36 to 39 | COC(=O)CCCCNC(=NC(=O)OCc1ccccc1)NC(=O)OCc1ccccc1
55 | 93 to 95 | CC(=O)Nc1ccsc1C(=O)c1ccccc1
56 | 134 to 135 | Cc1ccc(C(C)N(O)C(N)=O)cc1 (configuration not stated)
57 | 145 | CN(C)c1ccc(C2(c3ccc(N(C)C)cc3)Oc3ccccc3-c3[nH]c4ccccc4c32)cc1
58 | 90 to 95 | Nc1ccc([N+](=O)[O-])cc1I
59 | 159 to 160 | O=S(=O)(NC(c1ccc(F)cc1)c1ccnn1-c1ccc(F)cc1)c1ccc(Cl)s1 (configuration not stated)
60 | 198 to 200 | O=C1CC(c2cccc(-n3ccnc3)c2)=Nc2ccc(C3CC3)cc2N1
61 | 151 to 152 | O=C1OC(C2CCCCC2)(C2CCCCC2)C2CNCCN12 (configuration not stated)
62 | 154 | CC(NC(=O)C(C)(Cc1ccccc1)NC(=O)OC(c1ccc(F)cc1)C(C)C)c1ccccc1 (configuration not stated)
63 | 137 to 140 | CC(=O)OCCc1cc2c(s1)S(=O)(=O)CCc1cc(=O)n(-c3ccc(Cl)cc3)nc1-2
64 | 175 to 176 | CN(C)CCNC(=O)c1c2ccccc2nc2c1[nH]c1ccccc12
65 | 90 to 92 | CC(C)NC(=O)C(C)(F)c1ccc(OS(=O)(=O)C(F)(F)F)cc1 (configuration not stated)
66 | 147 to 148 | CCOc1nn(-c2ccc(C(F)(F)F)cn2)cc1CCOc1ccc(CCC(=O)O)c(OC)c1
67 | > 220 | COc1cc2c(cc1C(F)(F)F)N(C(=O)Nc1cccc(C(=O)Nc3cccnc3)c1)CC2
68 | 202 to 204 | C=CCOc1ccccc1-c1ncc(C(N)=O)c(=O)[nH]1
69 | 144 to 145 | O=c1cc(-c2ccccc2)oc2cccc(F)c12
70 | 136 to 137 | CC(C)=CCN1c2nc(Cl)ccc2NC(=O)[C@@H]1C
71 | 73 to 75 | Cc1cc(C2=C(C=CC3CC(O)CC(=O)O3)C(C)(C)CC(OC(=O)Nc3ccccc3)C2)ccc1F (configuration not stated)
72 | 165 to 168 | CCSC1Oc2ccccc2C(=S)C1(C#N)C(N)=O (configuration not stated)
73 | 100 | COC(=O)C=C1C(=O)NC(=O)N1C
74 | 107 to 108 | CCCc1cc(C(=O)O)ccc1OCCCCCCc1cccc(OC)c1OC
75 | 101 to 102 | CCCc1c(OCCCOc2ccc(C(=O)OCC)cc2Cl)ccc(C(C)=O)c1O
76 | 208 to 210 | CCc1cc(Br)cc2nc3c(=O)[nH][nH]c(=O)c3c(O)c12

Row | melting point [°C] | Structure (SMILES)
77 | 135 to 137 | Clc1ccc(C2(c3ccccc3)OC2n2ccnc2)c(Cl)c1 (configuration not stated)
78 | 214 to 216 | N=C(NO)c1cccc2c1nc(-c1c(F)cccc1F)n2Cc1c(F)cccc1F
79 | 164 | O=C(c1ccc(F)cc1)C1CCN(CCCn2c(=O)[nH]c3cc(Cl)ccc32)CC1
80 | 168 to 170 | CCc1nc(OC)c(NC(=O)N2CCN(c3cccc(O)c3)CC2)cc1C
81 | 135 to 137 | CCCCC(=N)NC(=O)Nc1cccc(Cl)c1
82 | 170 to 172 | CN(C)c1ccc(-c2nnc(N(C)C)nc2-c2ccc(N(C)C)cc2)cc1
83 | 184 to 185 | O=S1(=O)c2ccccc2C=Cc2ccc(C=Nc3ccccc3)cc21
84 | 142 to 145 | CCOC(=O)Cc1nn(Cc2ccc(Br)c(Cl)c2)c(=O)c2ccccc12
85 | 238 to 239 | O=S(=O)(c1ccccc1)c1c[nH]c2ccc(N3CCN(Cc4ccccc4)CC3)nc12
86 | 220 to 221 | O=C(c1ccc(O)cc1)c1oc2ccccc2c1-c1ccc(Cl)cc1
87 | 105 to 106 | Fc1ccc(N2CCN(CCCOc3cccc(-c4nnco4)c3)CC2)cc1
88 | 150 | CO[C@@H]1CN(CCCn2nc(Cl)ccc2=O)CC[C@@H]1NC(=O)c1cc(Cl)c(N)c2c1OCCC2 (relative stereo)
89 | 187 to 189 | N#CC(=NO)C(=O)NC(=O)NCCCCCC(N)=O
90 | 211 | Cc1cnn(-c2cc(N)c(Cl)cc2Cl)c(=O)c1Br
91 | 176 to 177 | CC(=O)N(C(=O)OC(C)(C)C)c1ccc(-c2nc3n(Cc4c(F)cccc4F)c(C)c(Cc4ccccc4)c(=O)n3c2C)cc1
92 | 160 to 165 | CCCCCCCCCCCCCCc1ccc(N(CC(=O)O)CC(=O)O)cc1
93 | 170 | CC(=O)NC1CCc2[nH]c3ccccc3c2C1 (configuration not stated)
94 | 58 to 59 | CO/C=C(/C(=O)OC)n1cccc1C=O
95 | 103 to 105 | CCC1C(C=O)=NN=C(c2ccc(OC)c(OC)c2)c2cc(OC)c(OC)cc21 (configuration not stated)
96 | 152 to 154 | CC(=O)SCC(C)C(=O)N1C(C(=O)O)CC2CCCCC21 (configuration not stated)
97 | 290 to 292 | FC(F)c1nc2ccccc2n1-c1nc(Nc2cncnc2)nc(N2CCOCC2)n1
98 | 209 to 210 | CC[C@@]12C[C@H](N)[C@](O)(c3ccccc3)C[C@H]1CCc1cc(O)ccc12
99 | 79 to 80 | CCCC#CCn1ncc(-c2ccc(S(C)(=O)=O)cc2)c(-c2ccc(F)cc2)c1=O
100 | 150 to 151 | COC(=O)c1ccc(-c2nc(-c3cccc(Cl)c3)cs2)cc1
101 | 201 to 203 | CCCOc1cc(-c2ccc3c(c2)C=C(C(=O)Nc2ccc(CN(C)C4CCOCC4)cc2)CCS3(=O)=O)ccc1C#N
102 | 96 to 97 | CCOC(=O)/C=C/c1nc(COc2ccc(CO)cc2OC)c(C)o1

Reference: a melting point compilation (Tetko et al.; mined from patent text by program, amines drawn as free bases though some values may be those of a salt)
